Source: patent publication US20220397565A1, “METHODS OF SCREENING AND RELATED SYSTEMS” (RECURSION PHARMACEUTICALS, INC., priority 2021, published 2022)

Assays:
[1] = test system: Cells transduced with BacMam BRAF V600E; experiment: Morphological profiling of BacMam BRAF V600E transduced cells treated with test agents; assay type: cell-based; conditions: for side effect score versus disease score (position relative to the funnel, FIG. 10): cells expressing BRAF V600E, varying concentrations of compound, dot plot FIG. 10; for quantified reversal of the disease state (rescue of BRAF V600E overexpression phenotype): morphological profile of treated vs not treated BRAF V600E-transduced cells, 18 compounds tested
Source text: (§1) Morphological profiles may be generated by various methods. In an embodiment, morphologically profiling cells may comprise imaging relevant cells or tracking certain parameters or features of the cells. The tracking may be of staining intensities in one or more imaging channels, correlations between imaging channels, textural patterns, size and shape of cellular structures, geometric relationships between intracellular structures, geometric relationships between adjacent cells, or combinations thereof. Cellular features, such as 100 or more cellular features, 500 or more cellular features, or 1000 or more cellular features, may be tracked when morphologically profiling cells. Among various methods of determining these cellular features, they may be obtained by imaging cells with or without fluorescent or non-fluorescent stains or combinations thereof, and numeric features determined by using deep learning embeddings, hand-tuned feature extraction, or combinations thereof. Other than tracking the cellular features, the morphological profiling may include reducing the output of the cellular features using statistical modeling such as principal component analysis.
Pathogenic and non-pathogenic transduced cells were cultured then morphologically profiled. A heatmap of cosine similarities between all pairs of groups (or reagents), origined by method one were generated (FIG. 7). Shown are cells transduced with BacMam vectors having BRAF V600E, KRAS G12C, KRAS G12D, MFN1, MFN1T109A, CTNNB1B, EPAS1, SMO F460L, ALK, EGFR, and some of their nonsense counterparts. […] Cosine similarities between all pairs of feature vectors that were origin by method two in FIG. 7 (FIG. 8).
Cells transduced with BacMam BRAF V600E were treated with varying concentrations of 18 compounds which include dabrafenib and vemurafenib, which target BRAF, and ulixertinib and MEK162, which target downstream biology. […] The difference in features caused by transducing the cells with BRAF V600E was determined. The effect of compounds on those features was determined within the BRAF V600E-transduced cells and also the effects of compounds on features not related to transduction with BRAF V600E. […] The efficacy of test agents in reversing a disease state can be quantified. This is calculated based on morphological profiling of cells treated with a test agent compared to cells not treated with a test agent.

[2] = test system: EGFR-overexpressing cells; experiment: Morphological profiling of BacMam EGFR transduced cells treated with test agents; assay type: cell-based; conditions: cosine similarity, treated vs not-treated EGFR overexpressing cells, FIG. 9
Source text: as §1

CC(C)Nc1cc(-c2c[nH]c(C(=O)N[C@H](CO)c3cccc(Cl)c3)c2)c(Cl)cn1 [ulixertinib]
side effect score versus disease score (position relative to the funnel, FIG. 10) [1]: Separation from the funnel
quantified reversal of the disease state (rescue of BRAF V600E overexpression phenotype) [1]: some of the top test agents

CC(C)(C)c1nc(-c2cccc(NS(=O)(=O)c3c(F)cccc3F)c2F)c(-c2ccnc(N)n2)s1 [dabrafenib]
side effect score versus disease score (position relative to the funnel, FIG. 10) [1]: Separation from the funnel
quantified reversal of the disease state (rescue of BRAF V600E overexpression phenotype) [1]: some of the top test agents

COc1cc2ncnc(Nc3ccc(F)c(Cl)c3)c2cc1NC(=O)/C=C/CN1CCCCC1 [dacomitinib]
quantification of the reversal of the disease state (modulation of phenotypes of EGFR overexpressing cells) [2]: top two test agents

Cn1cnc2c(F)c(Nc3ccc(Br)cc3F)c(C(=O)NOCCO)cc21 [MEK162]
side effect score versus disease score (position relative to the funnel, FIG. 10) [1]: Separation from the funnel
quantified reversal of the disease state (rescue of BRAF V600E overexpression phenotype) [1]: some of the top test agents
